This is an account of results in patent US4220641A, “Organic compounds” (Sandoz Ltd., priority 1977, dated 1980).

One test has as its system ear swelling. Nature of the test: Oxazolon test in mice. It is filed as in vivo. Conditions: 5×70 mg/kg p.o. Here is the method:
(b) Oxazolon test in mice:
A decrease in the ear swelling is observed upon administration of 5×70 mg/kg p.o. of the compound.

Test [1] relates to mice spleen lymphoctyes stimulated with Concanavalin A. Nature of the test: lymphocyte stimulation test according to Janossy in vitro. It is filed as cell-based. Conditions: concentrations of 0.01 to 10.0 μg/ml, Concanavalin A stimulated mice spleen lymphocytes.

With `C/C=C/C[C@@H](C)[C@@H](O)[C@H]1C(=O)N[C@@H](C(C)C)C(=O)N(C)CC(=O)N(C)[C@@H](CC(C)C)C(=O)N[C@@H](C(C)C)C(=O)N(C)[C@@H](CC(C)C)C(=O)N[C@@H](C)C(=O)N[C@H](C)C(=O)N(C)[C@@H](CC(C)C)C(=O)N(C)[C@@H](CC(C)C)C(=O)N(C)[C@@H](C(C)C)C(=O)N1C` [cyclosporin D], the ear swelling result with ear swelling is “decrease”. Moreover, in test [1], the “inhibition of H^3-thymidine incorporation” value is recorded as “strong inhibition”, the “inhibition of the blastogenese” value is “strong inhibition” and the “inhibition of the proliferation rate” value is given as “strong inhibition”.

Consider `CCCC[C@@H](C)[C@@H](O)C1C(=O)N[C@@H](C(C)C)C(=O)N(C)CC(=O)N(C)[C@@H](CC(C)C)C(=O)N[C@@H](C(C)C)C(=O)N(C)[C@@H](CC(C)C)C(=O)N[C@@H](C)C(=O)N[C@H](C)C(=O)N(C)[C@@H](CC(C)C)C(=O)N(C)[C@@H](CC(C)C)C(=O)N(C)[C@@H](C(C)C)C(=O)N1C` (some centres unmarked) [dihydrocyclosporin D], for which the ear swelling entry in the test with ear swelling was “decrease”. In test [1], the “inhibition of H^3-thymidine incorporation” value was “strong inhibition”, the “inhibition of the blastogenese” value is reported as “strong inhibition” and the “inhibition of the proliferation rate” value was “strong inhibition”.
